Legend:
HepG2 = assay: Cytotoxicity against Homo sapiens (human) HepG2 cells after 48 hr by MTT reduction assay; format: functional, cell-based; details: HepG2, 48 h
SMMC-7721 = assay: Cytotoxicity against Homo sapiens (human) SMMC7721 cells after 48 hr by MTT reduction assay; format: functional, cell-based; details: SMMC-7721, 48 h
[1] = biological target: Cyclin-dependent kinase 1/cyclin B1 (Homo sapiens, UniProt P06493); assay: Inhibition of CDK1/Cyclin B (unknown origin) by Z-LYTE assay; format: protein-complex assay
Sequence of Cyclin-dependent kinase 1/cyclin B1 (P06493 whole entry): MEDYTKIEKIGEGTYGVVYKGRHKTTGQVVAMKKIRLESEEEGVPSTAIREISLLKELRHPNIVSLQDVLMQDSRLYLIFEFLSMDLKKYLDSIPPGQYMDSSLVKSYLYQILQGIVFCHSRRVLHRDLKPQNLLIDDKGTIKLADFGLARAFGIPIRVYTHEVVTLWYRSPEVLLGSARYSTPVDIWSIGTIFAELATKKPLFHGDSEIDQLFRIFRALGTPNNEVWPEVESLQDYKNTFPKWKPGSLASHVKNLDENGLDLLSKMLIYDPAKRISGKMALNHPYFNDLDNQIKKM
Sequence of Cyclin-dependent kinase 1/cyclin B1 (P14635 whole entry, further chain): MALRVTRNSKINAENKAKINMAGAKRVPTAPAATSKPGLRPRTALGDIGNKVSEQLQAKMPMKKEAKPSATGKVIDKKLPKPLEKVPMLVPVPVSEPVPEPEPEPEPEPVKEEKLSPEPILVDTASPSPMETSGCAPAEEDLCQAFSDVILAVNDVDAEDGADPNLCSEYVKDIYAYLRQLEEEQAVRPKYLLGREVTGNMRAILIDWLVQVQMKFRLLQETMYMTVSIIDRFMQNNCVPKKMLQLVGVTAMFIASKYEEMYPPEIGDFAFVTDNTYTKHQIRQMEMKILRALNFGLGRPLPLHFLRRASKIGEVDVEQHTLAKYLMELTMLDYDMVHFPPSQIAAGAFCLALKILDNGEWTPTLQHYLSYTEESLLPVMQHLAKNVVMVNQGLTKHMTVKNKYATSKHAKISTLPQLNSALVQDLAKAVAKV

For `Cc1ccc2oc(-c3ccc(N)cc3)cc(=O)c2c1`, the IC50 (HepG2) was 21.3 µM.
For `CN1CCN(Cc2ccc3c(=O)cc(-c4ccccc4Cl)oc3c2)CC1`, the IC50 (HepG2) was 14.2 µM and the IC50 (SMMC-7721) was 12.9 µM.
In the case of `O=c1cc(-c2ccccc2Cl)oc2cc(CN3CCNCC3)ccc12`, the IC50 (HepG2) is reported as 2.58 µM and the IC50 (SMMC-7721) is reported as 1.91 µM.
`CN(C)Cc1ccc2c(=O)cc(-c3ccccc3Cl)oc2c1` was tested, and the IC50 (SMMC-7721) was 28.2 µM.
Work on `O=c1cc(-c2ccc(Cl)cc2)oc2ccc(CN3CCCCC3)cc12` yielded an IC50 (HepG2) of 14 µM and an IC50 (SMMC-7721) of 16.2 µM.
`O=c1cc(-c2ccc(Cl)cc2)oc2ccc(CN3CCNCC3)cc12` showed an IC50 (HepG2) of 2.69 µM and an IC50 (SMMC-7721) of 1.51 µM.
Compound `CC[N+](CC)(CC)Cc1ccc2oc(-c3ccccc3Cl)cc(=O)c2c1` has an IC50 (HepG2) of 61 µM.
In the case of `Nc1ccc(-c2cc(=O)c3cc(CN4CCCCC4)ccc3o2)cc1`, the IC50 (HepG2) is reported as 2.64 µM and the IC50 (SMMC-7721) is reported as 3.68 µM.
For `Cc1ccc2c(=O)cc(-c3ccc(Cl)cc3)oc2c1`, the IC50 (HepG2) was 6.83 µM.
In the case of `Cc1ccc2c(=O)cc(-c3ccccc3Cl)oc2c1`, the IC50 (HepG2) is reported as 28.3 µM.
In the case of `Cc1ccc2c(=O)cc(-c3ccc(N)cc3)oc2c1`, the IC50 (HepG2) is reported as 40.5 µM.
`CN1CCN(Cc2ccc3c(=O)cc(-c4ccc([N+](=O)[O-])cc4)oc3c2)CC1` was tested, and the IC50 (SMMC-7721) was 10.7 µM.
Work on `O=c1cc(-c2ccc([N+](=O)[O-])cc2)oc2c(CN3CCNCC3)cc(Cl)cc12` yielded an IC50 (HepG2) of 0.243 µM, an IC50 (SMMC-7721) of 1.1 µM and an IC50 [1] of 4.84 µM.
`CN(C)Cc1cc(Cl)cc2c(=O)cc(-c3ccc([N+](=O)[O-])cc3)oc12` gave an IC50 (HepG2) of 6.19 µM and an IC50 (SMMC-7721) of 56.5 µM.
Compound `O=c1cc(-c2ccc([N+](=O)[O-])cc2)oc2c(Cn3ccnc3)cc(Cl)cc12` has an IC50 (HepG2) of 2.94 µM, an IC50 (SMMC-7721) of 1.2 µM and an IC50 [1] of 2.14 µM.
Work on `CCN(CC)Cc1cc(Cl)cc2c(=O)cc(-c3ccccc3Cl)oc12` yielded an IC50 (HepG2) of 7.94 µM, an IC50 (SMMC-7721) of 0.81 µM and an IC50 [1] of 2.06 µM.
Compound `O=c1cc(-c2ccccc2Cl)oc2c(CN3CCCCC3)cc(Cl)cc12` has an IC50 (HepG2) of 10.7 µM and an IC50 (SMMC-7721) of 3.4 µM.
With `CN1CCN(Cc2cc(Cl)cc3c(=O)cc(-c4ccccc4Cl)oc23)CC1` the IC50 (SMMC-7721) was 3.1 µM.
For `O=c1cc(-c2ccccc2Cl)oc2c(CN3CCOCC3)cc(Cl)cc12`, the IC50 (HepG2) was 6.81 µM and the IC50 (SMMC-7721) was 13.2 µM.
`O=c1cc(-c2ccccc2Cl)oc2c(CN3CCNCC3)cc(Cl)cc12` showed an IC50 (HepG2) of 18.7 µM and an IC50 (SMMC-7721) of 2.69 µM.
With `CN(C)Cc1cc(Cl)cc2c(=O)cc(-c3ccccc3Cl)oc12` the IC50 (HepG2) was 1.87 µM and the IC50 (SMMC-7721) was 1.14 µM.
Work on `O=c1cc(-c2ccccc2Cl)oc2c(Cn3ccnc3)cc(Cl)cc12` yielded an IC50 (HepG2) of 3.27 µM and an IC50 (SMMC-7721) of 1.07 µM.
`O=c1cc(-c2ccc(Cl)cc2)oc2c(CN3CCOCC3)cc(Cl)cc12` showed an IC50 (HepG2) of 6.33 µM, an IC50 (SMMC-7721) of 15.3 µM and an IC50 [1] of 2.17 µM.
`Cc1ccc2oc(-c3ccccc3Cl)cc(=O)c2c1` gave an IC50 (HepG2) of 6.23 µM and an IC50 (SMMC-7721) of 15.1 µM.
In the case of `CN1CCN(Cc2ccc3oc(-c4ccc([N+](=O)[O-])cc4)cc(=O)c3c2)CC1`, the IC50 (SMMC-7721) is reported as 19 µM.
`Cc1cc(Cl)cc2c(=O)cc(-c3ccc(N)cc3)oc12` showed an IC50 (HepG2) of 11.9 µM.
Compound `CCN(CC)Cc1cccc2c(=O)cc(-c3ccc([N+](=O)[O-])cc3)oc12` has an IC50 (HepG2) of 28.8 µM and an IC50 [1] of 2.21 µM.
Work on `CN1CCN(Cc2cccc3c(=O)cc(-c4ccc([N+](=O)[O-])cc4)oc23)CC1` yielded an IC50 (HepG2) of 2.94 µM, an IC50 (SMMC-7721) of 1.19 µM and an IC50 [1] of 8.13 µM.
`CCN(CC)Cc1cc(Cl)cc2c(=O)cc(-c3ccc([N+](=O)[O-])cc3)oc12` showed an IC50 (HepG2) of 1.19 µM and an IC50 (SMMC-7721) of 2.99 µM.
`O=c1cc(-c2ccc([N+](=O)[O-])cc2)oc2c(CN3CCCCC3)cc(Cl)cc12` gave an IC50 (HepG2) of 8.91 µM and an IC50 (SMMC-7721) of 1.09 µM.
`CN1CCN(Cc2cc(Cl)cc3c(=O)cc(-c4ccc([N+](=O)[O-])cc4)oc23)CC1` gave an IC50 (HepG2) of 1.76 µM, an IC50 (SMMC-7721) of 5.21 µM and an IC50 [1] of 6.22 µM.
`O=c1cc(-c2ccc([N+](=O)[O-])cc2)oc2cc(CN3CCNCC3)ccc12` gave an IC50 (HepG2) of 4.53 µM and an IC50 (SMMC-7721) of 2.03 µM.
In the case of `CCN(CC)Cc1ccc2c(=O)cc(-c3ccccc3Cl)oc2c1`, the IC50 (HepG2) is reported as 10.7 µM.
`O=c1cc(-c2ccccc2Cl)oc2cc(CN3CCCCC3)ccc12` was tested, and the IC50 (HepG2) was 3.64 µM.
